Tests used:
[1] = tested on: TG1019 (5-oxo-ETE receptor); assay: Migration test using CHO cells stably expressing TG1019; type: cell-based, human; conditions: 5 hours
Description: The cells stably expressing TG1019 and the cells not expressing the same obtained in the above section (1) were cultured in a medium (DMEM/F12 medium supplemented with 10% fetal bovine serum [GibcoBRL]), containing 800 μg/ml of hygromycin B. The cells which were 80 to 90% confluent were dissociated by a cell dissociation buffer, and the cells were washed twice by centrifugation (600×g, 5 minutes, 4° C.) with 10 ml of RPMI1640 culture medium supplemented with 0.1% BSA Then, the cells were prepared to a concentration of 1×10^6 cells/ml in the same medium.
Cell migration test was carried out using 2 chambers for migration test (Transwell; 8 μm pore, 24 well, 3422 [Costar]). Chambers were set in a plate, and a solution (600 μl) containing 5-oxo-ETE was added to the lower chamber, and the cell solution (100 μl) was added to the upper chamber, to start the reaction. Migration was carried out at 37° C. for 5 hours in a CO2 incubator.
The chambers were removed, and […] of the solution in the lower chamber was transferred to a tube, and centrifuged at 600×g, 3 minutes, 4° C. 300 μl of the supernatant was removed, and RPMI1640 culture medium supplemented with 0.1% BSA (not containing phenol red) was added, if needed, to adjust a volume of the cell solution to 300 μl. The number of the cells migrated to the lower chamber were counted by flow cytometer.

[2] = tested on: PC3 human prostate cancer cells; assay: Apoptosis analysis (annexin V / PI flow cytometry) in PC3 cells; type: cell-based; conditions: 20 μl of 100 μM 5-oxo-ETE added together with DHA, 2 hours
Description: PC3 human prostate cancer cells, which had been cultured in RPMI1640 culture medium supplemented with 10% fetal bovine serum were dissociated by trypsin-EDTA solution (GibcoBRL), and suspended in RPMI1640 culture medium supplemented with 0.5% fetal bovine serum. The cells were plated onto a 6 cm Petri dish to 2×10^5 cells/dish, and cultured at 37° C. for 18 hours in a CO2 incubator. The supernatant was removed and 1980 μl of the same medium was added, and 20 μl of 1 mM DHA was further added thereto, and the mixture was cultured at 37° C. for 2 hours in a CO2 incubator.
In addition, as a test in the presence of 5-oxo-ETE, 1960 μl of RPMI1640 culture medium supplemented with 0.5% fetal bovine serum was added, and 20 μl of a 100 μM 5-oxo-ETE solution and 20 μl of a 1 mM DHA solution were further added thereto, and the cells were cultured in a similar manner as described above.
The adhered cells were removed by a cell scraper, transferred to a 1.5 ml tube, and centrifuged at 800×g for 5 minutes at 4° C., to collect suspended and adhered cells. […] The cells were suspended in 100 μl of a FITC-Annexin solution, and after 15 minutes of reaction under light-shielded condition at room temperature, 300 μl of Binding buffer was added thereto, and the FITC-Annexin bound to the cells and propidium iodide (PI) uptake into the cells were measured, by means of flow cytometer [Becton Dickinson].

[3] = tested on: TG1019 (5-oxo-ETE receptor); assay: Intracellular calcium level in CHO cells stably expressing TG1019; type: cell-based, human; conditions: FuraII 340/380 nm ratio
Description: (1) Preparation of cells stably expressing TG1019 Cells stably expressing TG1019 (the receptor protein of the present invention) and cells not expressing TG1019 were prepared by introducing to CHO cells the TG1019 protein expression vector prepared in Example 5 and the control vector, as described below.
The cells stably expressing TG1019 prepared in the above section (1) was incubated in DMEM/F12 medium supplemented with 10% fetal bovine serum at 37° C. in a CO2 incubator. To the cells which were 80 to 90% confluent, was added a cell dissociation buffer (Cell Dissociation Buffer Enzyme-free PBS-based, available from Invitrogen), and cells were dissociated by incubating at 37° C. for 5 minutes. […]
The cells after loading were centrifuged once with an assay buffer, to remove supernatant, and then, they were suspended in an assay buffer to have a concentration of 3.7 to 6.3×10^6 cells/ml. This cell suspension was portioned into a 96 well plate by 80 μl/well, and the plate was set in a fluorescence measuring device (FDSS6000, [Hamamatsu Photonics]), and the reaction was started by adding a solution containing 5-oxo-ETE or 5-HETE in a 5 fold concentration dissolved in an assay buffer, by 20 μl/well. The measurement was done by measuring fluorescence intensity at 510 nm, with excitation wavelength of 340 nm and 380 nm.

CCCCC/C=C\C/C=C\C/C=C\C=C\C(=O)CCCC(=O)O [5-oxo-ETE, 5-oxo-6E,8Z,11Z,14Z-eicosatetraenoic acid]
cell migration ([1]; cells not expressing TG1019): did not
cell migration ([1]; cells stably expressing TG1019): showed 5-oxo-ETE-induced migration
effect on DHA induction of apoptosis [2]: the induction of apoptosis was inhibited
change in intracellular calcium level [3]: increase in intracellular calcium level

From patent US7527935B2, “G-protein coupled receptor having eicosanoid as ligand and gene thereof” (Mitsubishi Tanabe Pharma Corporation, priority 2002, dated 2009)
